US12685743B2, “Methods and compositions for treating and diagnosing pancreatic cancers” (New York University, priority 2019, dated 2026)

Columns and labels:
KPC tumor cells = test: XTT proliferation assay of KPC tumor cells; format: cell-based; settings: recombinant mouse C3a 5 nM vs vehicle, serial time points (FIG. 8F)
Text: (§1) Littermates were used as controls.

[1] = tested on: orthotopic tumors from KPC mice; test: Intratumoral injection of recombinant C3a into orthotopic KPC tumors; format: in vivo, mouse; settings: single intratumoral injection 40 μg/kg on day 14, tumors collected day 21 (FIG. 4D)
Text: as §1

[2] = tested on: orthotopic PDA tumors from KPC mice; settings: for progression of orthotopic PDA (tumor weight): wild-type mice, oral antifungal vs vehicle, killed three weeks after tumor implantation (FIG. 3B, 7A)
[3] = tested on: oncogenic progression in KC mice (p48cre;LSL-KrasG12D); test: KC mouse model of slowly progressive PDA, mycobiome ablation; format: in vivo; settings: oral amphotericin B vs vehicle, killed at three months old (FIG. 3A)
Text: as §1

[4] = tested on: orthotopic tumors from KPC mice; test: Orthotopic KPC tumors in MBL-null mice; format: in vivo, mouse; settings: amphotericin B vs vehicle, three weeks (FIG. 8B)
Text: as §1

Compound | proliferation of KPC cells in vitro (KPC tumor cells) | growth of KPC tumors in vivo (change in tumor volume) [1] | progression of orthotopic PDA (tumor weight) [2] | oncogenic progression (pancreatic weight, acinar area, ADM/PanIN lesions, fibrosis) [3] | protection against tumor growth in MBL-null mice (tumor weight) [4] | effect on gemcitabine chemotherapy (tumor weight) ([2]; wild-type mice with orthotopic PDA tumors, amphotericin B combined with gemcitabine, three weeks of treatment (FIG. 3C))
recombinant C3a: recombinant mouse complement fragment C3a (R&D) | accelerated the proliferation of KPC cells | accelerated | – | – | – | –
OC(Cn1cncn1)(Cn1cncn1)c1ccc(F)cc1F [fluconazole] | – | – | protective against progression | – | – | –
C[C@@H]1[C@H](O)[C@@H](C)/C=C/C=C/C=C/C=C/C=C/C=C/C=C/[C@H](O[C@@H]2O[C@H](C)[C@@H](O)[C@H](N)[C@@H]2O)C[C@@H]2O[C@](O)(C[C@@H](O)C[C@@H](O)[C@H](O)CC[C@@H](O)C[C@@H](O)CC(=O)O[C@H]1C)C[C@H](O)[C@H]2C(=O)O [amphotericin B] | – | – | protective against progression | protected the mice against oncogenic progression | did not provide protection against tumor growth | potentiated the effect of chemotherapy based on gemcitabine
